Holding throughout (type): cell-based
One assay has as its target T1, human TLR7 (Homo sapiens, UniProt Q9NYK1).
T1 construct: host or cells: HEK-Blue cells
T1 sequence (Q9NYK1 27-1049): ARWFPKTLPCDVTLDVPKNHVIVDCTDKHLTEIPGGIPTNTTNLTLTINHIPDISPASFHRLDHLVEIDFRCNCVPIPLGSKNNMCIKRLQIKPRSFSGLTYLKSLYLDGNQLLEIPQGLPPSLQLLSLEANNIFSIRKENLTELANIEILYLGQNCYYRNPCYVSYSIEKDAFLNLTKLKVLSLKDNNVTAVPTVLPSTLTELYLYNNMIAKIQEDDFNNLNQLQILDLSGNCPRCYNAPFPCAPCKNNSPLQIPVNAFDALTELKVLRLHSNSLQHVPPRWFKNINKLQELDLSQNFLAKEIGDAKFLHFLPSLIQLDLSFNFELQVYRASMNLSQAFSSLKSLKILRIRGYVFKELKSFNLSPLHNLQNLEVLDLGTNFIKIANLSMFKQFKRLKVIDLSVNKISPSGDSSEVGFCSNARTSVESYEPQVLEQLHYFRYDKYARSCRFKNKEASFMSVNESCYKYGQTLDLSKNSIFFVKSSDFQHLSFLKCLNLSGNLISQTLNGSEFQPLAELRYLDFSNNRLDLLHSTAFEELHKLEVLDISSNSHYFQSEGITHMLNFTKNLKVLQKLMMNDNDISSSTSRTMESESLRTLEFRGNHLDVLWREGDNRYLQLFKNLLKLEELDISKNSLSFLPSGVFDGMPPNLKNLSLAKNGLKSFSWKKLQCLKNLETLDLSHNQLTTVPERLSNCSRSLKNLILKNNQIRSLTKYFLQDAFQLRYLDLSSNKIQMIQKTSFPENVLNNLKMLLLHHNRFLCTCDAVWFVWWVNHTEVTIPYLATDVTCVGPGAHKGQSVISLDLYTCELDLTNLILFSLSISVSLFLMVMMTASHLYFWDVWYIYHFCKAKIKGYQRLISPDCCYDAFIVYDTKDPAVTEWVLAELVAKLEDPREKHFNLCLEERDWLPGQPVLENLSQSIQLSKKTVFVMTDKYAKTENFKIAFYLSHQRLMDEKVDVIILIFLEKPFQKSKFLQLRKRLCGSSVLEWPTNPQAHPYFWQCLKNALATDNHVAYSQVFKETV
Nature of the assay: TLR7 inhibition reporter assay (HEK-Blue SEAP). The note with it: HEK-Blue cells overexpressing human TLR7, stimulated with gardiquimod 7.5 μM, 22 hour incubation. Here is the method:
(§1) TLR7/8/9 Inhibition Reporter Assays
(§2) HEK-Blue™-cells (Invivogen) overexpressing human TLR7, TLR8 or TLR9 receptors were used for screening inhibitors of these receptors using an inducible SEAP (secreted embryonic alkaline phosphatase) reporter gene under the control of the IFN-β minimal promoter fused to five NF-κB and AP-1-binding sites. Briefly, cells are seeded into Greiner 384 well plates (15000 cells per well for TLR7, 20.000 for TLR8 and 25,000 for TLR9) and then treated with test compounds in DMSO to yield a final dose response concentration range of 0.05 nM-50 μM. After a 30 minute compound pre-treatment at room temperature, the cells are then stimulated with a TLR7 ligand (gardiquimod at a final concentration of 7.5 μM), TLR8 ligand (R848 at a final concentration of 15.9 μM) or TLR9 ligand (ODN2006 at a final concentration of 5 nM) to activate NF-κB and AP-1 which induce the production of SEAP. After a 22 hour incubation at 37° C., 5% CO2, SEAP levels are determined with the addition of HEK-Blue™ Detection reagent (Invivogen), a cell culture medium that allows for detection of SEAP, according to manufacturer's specifications. The percent inhibition is determined as the % reduction in the HEK-Blue signal present in wells treated with agonist plus DMSO alone compared to wells treated with a known inhibitor.

In another assay the target is T2, human TLR9 (Homo sapiens, UniProt Q9NR96).
T2 construct: host or cells: HEK-Blue cells
T2 sequence (Q9NR96 26-1032): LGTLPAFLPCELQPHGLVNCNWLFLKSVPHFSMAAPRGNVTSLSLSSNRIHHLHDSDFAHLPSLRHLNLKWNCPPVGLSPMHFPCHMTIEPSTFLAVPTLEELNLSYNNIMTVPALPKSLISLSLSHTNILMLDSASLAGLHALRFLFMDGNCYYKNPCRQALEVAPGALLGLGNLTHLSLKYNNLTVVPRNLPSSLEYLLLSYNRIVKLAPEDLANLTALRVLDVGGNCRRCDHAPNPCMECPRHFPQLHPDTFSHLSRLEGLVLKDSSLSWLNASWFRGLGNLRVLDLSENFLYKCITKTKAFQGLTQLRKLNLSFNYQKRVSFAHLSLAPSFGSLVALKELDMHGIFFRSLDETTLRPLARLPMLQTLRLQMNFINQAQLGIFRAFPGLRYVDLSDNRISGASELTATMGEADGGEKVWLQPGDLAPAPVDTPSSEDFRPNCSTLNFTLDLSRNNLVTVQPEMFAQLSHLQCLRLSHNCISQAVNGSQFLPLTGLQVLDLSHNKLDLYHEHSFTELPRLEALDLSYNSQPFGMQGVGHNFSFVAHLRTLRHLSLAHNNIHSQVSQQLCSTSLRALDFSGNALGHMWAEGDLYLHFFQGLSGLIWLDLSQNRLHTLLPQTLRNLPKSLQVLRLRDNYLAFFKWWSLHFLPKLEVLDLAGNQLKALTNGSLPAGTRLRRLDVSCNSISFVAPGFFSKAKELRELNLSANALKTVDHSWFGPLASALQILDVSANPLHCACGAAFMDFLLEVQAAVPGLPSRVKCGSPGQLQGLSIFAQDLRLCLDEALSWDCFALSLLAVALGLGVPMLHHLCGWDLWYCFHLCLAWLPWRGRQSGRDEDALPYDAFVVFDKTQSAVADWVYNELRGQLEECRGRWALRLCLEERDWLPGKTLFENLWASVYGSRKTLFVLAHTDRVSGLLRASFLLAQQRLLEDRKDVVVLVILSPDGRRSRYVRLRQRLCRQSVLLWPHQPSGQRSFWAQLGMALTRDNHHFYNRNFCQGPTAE
Briefly: TLR9 inhibition reporter assay (HEK-Blue SEAP). The note with it: HEK-Blue cells overexpressing human TLR9, stimulated with ODN2006 5 nM, 22 hour incubation. The procedure:
as §1, §2

In the next assay the target is T3, human TLR8 (Homo sapiens, UniProt Q9NR97).
T3 construct: host or cells: HEK-Blue cells
T3 sequence (Q9NR97 27-1041): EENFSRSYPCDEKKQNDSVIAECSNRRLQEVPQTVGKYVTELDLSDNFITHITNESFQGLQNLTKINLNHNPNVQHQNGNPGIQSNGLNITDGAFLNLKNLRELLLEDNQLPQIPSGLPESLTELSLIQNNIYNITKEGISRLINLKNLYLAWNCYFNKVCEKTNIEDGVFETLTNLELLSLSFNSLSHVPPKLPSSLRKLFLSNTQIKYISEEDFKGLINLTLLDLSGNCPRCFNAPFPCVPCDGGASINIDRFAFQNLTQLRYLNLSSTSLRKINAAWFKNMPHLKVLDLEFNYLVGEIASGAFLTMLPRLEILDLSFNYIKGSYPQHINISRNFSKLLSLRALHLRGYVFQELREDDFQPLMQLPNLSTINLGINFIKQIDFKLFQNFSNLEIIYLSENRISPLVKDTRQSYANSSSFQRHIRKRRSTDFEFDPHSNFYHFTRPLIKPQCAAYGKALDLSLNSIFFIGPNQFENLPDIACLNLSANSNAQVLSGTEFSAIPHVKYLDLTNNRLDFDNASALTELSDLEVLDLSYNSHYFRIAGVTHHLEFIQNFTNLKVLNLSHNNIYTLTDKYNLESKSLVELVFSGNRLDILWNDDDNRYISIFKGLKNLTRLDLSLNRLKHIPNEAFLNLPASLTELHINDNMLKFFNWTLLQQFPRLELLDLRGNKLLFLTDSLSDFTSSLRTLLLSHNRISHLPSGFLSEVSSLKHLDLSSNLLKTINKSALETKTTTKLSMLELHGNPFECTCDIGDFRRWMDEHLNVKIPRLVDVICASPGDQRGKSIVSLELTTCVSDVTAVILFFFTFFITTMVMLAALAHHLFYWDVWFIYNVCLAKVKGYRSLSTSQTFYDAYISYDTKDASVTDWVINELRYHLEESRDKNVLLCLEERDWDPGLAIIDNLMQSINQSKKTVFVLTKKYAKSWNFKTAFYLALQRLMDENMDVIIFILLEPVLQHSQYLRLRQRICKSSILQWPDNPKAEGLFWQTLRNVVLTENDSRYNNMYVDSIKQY
Nature of the assay: TLR8 inhibition reporter assay (HEK-Blue SEAP). The note with it: HEK-Blue cells overexpressing human TLR8, stimulated with R848 15.9 μM, 22 hour incubation. Here is the method: as §1, §2

As to `Cc1c(-c2[nH]c3ccc(OCC4CN(CC(C)(C)O)C4)cc3c2C(C)C)cn2cnnc2c1C` [Example 28, 1-(3-(((2-(7,8-dimethyl-[1,2,4]triazolo[4,3-a]pyridin-6-yl)-3-isopropyl-1H-indol-5-yl)oxy)methyl)azetidin-1-yl)-2-methylpropan-2-ol], the results for the IC50 on human TLR7, on human TLR9 and at human TLR8 were 6.1 nM, 1250 nM and 21.7 nM, respectively.

With `Cc1cc(-c2[nH]c3ccc(OC4CCN(C)CC4)cc3c2C(C)C)cc(C)n1` [Example 29, 2-(2,6-dimethylpyridin-4-yl)-3-isopropyl-5-((1-methylpiperidin-4-yl)oxy)-1H-indole], the IC50 against human TLR7 came to 1.3 nM; at human TLR9 it was 379 nM; against human TLR8 it was 0.7 nM.

For the compound `Cc1cc(-c2[nH]c3ccc(OCC4CCCN(C)C4)cc3c2C(C)C)cc(C)n1` (stereo not drawn) [Example 30, 2-(2,6-dimethylpyridin-4-yl)-3-isopropyl-5-((1-methylpiperidin-3-yl)methoxy)-1H-indole], the IC50 against human TLR7 turned out to be 2.3 nM; on human TLR9, 304 nM; on human TLR8 it was 2.6 nM.

As for `Cc1cc(-c2[nH]c3ccc(OC4CCN(C(C)C)CC4)cc3c2C(C)C)cc(C)n1` [Example 31, 2-(2,6-dimethylpyridin-4-yl)-3-isopropyl-5-((1-isopropylpiperidin-4-yl)oxy)-1H-indole], the IC50 against human TLR7 stood at 2.9 nM; against human TLR9, 530 nM; on human TLR8 it was 1 nM.

Turning to `Cc1cc(-c2[nH]c3ccc(OC4CCN(C)CC4)cc3c2C(C)C)cn2ncnc12` [Example 32, 6-(3-isopropyl-5-((1-methylpiperidin-4-yl)oxy)-1H-indol-2-yl)-8-methyl-[1,2,4]triazolo[1,5-a]pyridine], the IC50 at human TLR7 amounted to 0.9 nM; against human TLR9, 1620 nM; on human TLR8, 1 nM.

Turning to `Cc1cc(-c2[nH]c3ccc(OCC4CCN(C)CC4)cc3c2C(C)C)cc(C)n1` [Example 33, 2-(2,6-dimethylpyridin-4-yl)-3-isopropyl-5-((1-methylpiperidin-4-yl)methoxy)-1H-indole], the IC50 at human TLR7 was 2.8 nM; against human TLR9 it was 502 nM; on human TLR8 it was 2.6 nM.

Take `Cc1cc(-c2[nH]c3ccc(OCC4CCN(C)CC4)cc3c2C(C)C)cn(C)c1=O` [Example 34, 5-(3-isopropyl-5-((1-methylpiperidin-4-yl)methoxy)-1H-indol-2-yl)-1,3-dimethylpyridin-2(1H)-one]: the values for the IC50 against human TLR7, against human TLR9 and against human TLR8 were 2.4 nM, 5550 nM and 1.6 nM, respectively.

`Cc1cc(-c2[nH]c3ccc(OCC4CCN(C(C)C)CC4)cc3c2C(C)C)cc(C)n1` [Example 35, 2-(2,6-dimethylpyridin-4-yl)-3-isopropyl-5-((1-isopropylpiperidin-4-yl)methoxy)-1H-indole]: the IC50 against human TLR7 turned out to be 4.9 nM; at human TLR9 it was 317 nM; at human TLR8, 2.7 nM.

Take `Cc1cc(-c2[nH]c3ccc(OCC4CCN(C(C)C)CC4)cc3c2C(C)C)cn(C)c1=O` [Example 36, 5-(3-isopropyl-5-((1-isopropylpiperidin-4-yl)methoxy)-1H-indol-2-yl)-1,3-dimethylpyridin-2(1H)-one]: the IC50 against human TLR7 came to 5.6 nM; against human TLR9, 10600 nM; against human TLR8, 2.4 nM.

Take `Cc1cc(-c2[nH]c3ccc(O[C@H]4CCCN(C)C4)cc3c2C(C)C)cn(C)c1=O` [Example 37, (S)-5-(3-isopropyl-5-((1-methylpiperidin-3-yl)oxy)-1H-indol-2-yl)-1,3-dimethylpyridin-2(1H)-one]: the IC50 against human TLR7 is 12.8 nM; at human TLR9, 46800 nM; at human TLR8 it was 56.3 nM.

Regarding `Cc1cc(-c2[nH]c3ccc(O[C@H]4CCCN(C)C4)cc3c2C(C)C)cn2ncnc12` [Example 38, (S)-6-(3-isopropyl-5-((1-methylpiperidin-3-yl)oxy)-1H-indol-2-yl)-8-methyl-[1,2,4]triazolo[1,5-a]pyridine], the IC50 was 3.6 nM against human TLR7, 3640 nM against human TLR9 and 27 nM on human TLR8.

Consider `Cc1cc(-c2[nH]c3ccc(OC4CCN(C5CCOCC5)CC4)cc3c2C(C)C)cn(C)c1=O` [Example 39, 5-(3-isopropyl-5-((1-(tetrahydro-2H-pyran-4-yl)piperidin-4-yl)oxy)-1H-indol-2-yl)-1,3-dimethylpyridin-2(1H)-one], for which the IC50 against human TLR7 worked out at 2.5 nM; against human TLR9, 8190 nM; against human TLR8, 0.5 nM.

Values taken from patent publication US12030878B2 (BRISTOL-MYERS SQUIBB COMPANY, priority 2017, dated 2024).
